Experimental data: patent US6461997B1, “Triazole sulfones having herbicidal activity” (Monsanto Technology LLC, priority 1999, dated 2002)

Columns and labels:
SINAR (wild mustard) = test: Pre-emergence herbicidal activity, cool season; assay type: in vivo, Sinapis arvensis; details: lowest tested rate with 80% or greater inhibition; rates 300, 100, 30, 10 g/ha; about 14 days
In short: (§1)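 Seeds sown in sterilised fertilised topsoil received surface-applied compound in 50:50 acetone/water, typically at 300, 100, 30 and 10 g/ha, then greenhouse-grown at 30/21° C (warm-season species) or 18/13° C (cool-season species). Percent inhibition versus untreated plants was scored at about 14 days, giving GR80; an asterisk marks activity short of 80% at the top rate.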

SORVU (shattercane) = test: Pre-emergence herbicidal activity, warm season; assay type: in vivo, Sorghum vulgare; details: GR80 = lowest tested rate (300, 100, 30, 10 g/ha) with 80% or greater inhibition; approx. 14 days after treating; 30/21° C.
Method: (§2) Tables 5 to 8 summarize results of tests conducted as described below to determine the pre-emergence herbicidal activity, in the form of a GR80 value, of illustrative compounds of this invention. […] Compounds of the invention were typically applied at rates of 300, 100, 30, and 10 g/ha. Where herbicidal activity was evident but 80% inhibition was not achieved at the highest rate tested, an asterisk (*) is shown in the following tables.
(§3) The pre-emergence tests were conducted by the following procedure. Topsoil was sieved to pass through a 1.27 cm screen. Fertilizer was added to the topsoil and the mixture was then sterilized by heating. The topsoil mixture was placed in a pot and compacted to a depth of 1.0 to 1.25 cm from the top of the pot. Seeds of each of several monocotyledonous and dicotyledonous annual plant species were placed on top of the soil. Additional soil was subsequently placed over the seeds to level-fill the pot. A known amount of each test compound dissolved or suspended in an appropriate organic solvent was diluted with a 50:50 mix of acetone and water and applied to the surface of the soil. After treatment the plants were placed in a greenhouse where they received 0.64 cm of overhead irrigation. All subsequent watering consisted of a light overhead mist and/or subirrigation as needed for germination and growth. Tables 5 and 6 below relate to warm season plant species which were placed after pre-emergence treatment in a greenhouse with a 30/21° C. day/night temperature regime. Tables 7 and 8 below relates to cool season plant species placed after pre-emergence treatment in a greenhouse or growth chamber with an 18/13° C. day/night temperature regime.
(§4) Approximately 14 days after planting and treating, the plants were observed and herbicidal efficacy recorded as percent inhibition by comparison with untreated plants.
(§5) The plant species usually regarded as weeds which were utilized in the tests are identified in the tables below according to the following legend, in which “d” indicates a dicotyledonous species and “m” a monocotyledonous species. All monocotyledonous species included in the tests herein are grasses.

SETFA (giant foxtail) = test: Pre-emergence herbicidal activity, warm season; assay type: in vivo, Setaria faberi; details: GR80 = lowest tested rate (300, 100, 30, 10 g/ha) with 80% or greater inhibition; approx. 14 days after treating; 30/21° C.
Method: as §2, §3, §4, §5

SOLNI (black nightshade) = test: Pre-emergence herbicidal activity, warm season; assay type: in vivo, Solanum nigrum; details: GR80 = lowest tested rate (300, 100, 30, 10 g/ha) with 80% or greater inhibition; approx. 14 days after treating; 30/21° C.
Method: as §2, §3, §4, §5

[1] = system: LAMPU (purple deadnettle); test: Pre-emergence herbicidal activity, cool season; assay type: in vivo, Lamium purpureum; details: lowest tested rate with 80% or greater inhibition; rates 300, 100, 30, 10 g/ha; about 14 days
In short: as §1

[2] = system: VERPE (creeping speedwell); test: Pre-emergence herbicidal activity, cool season; assay type: in vivo, Veronica persicaria; details: lowest tested rate with 80% or greater inhibition; rates 300, 100, 30, 10 g/ha; about 14 days
In short: as §1

POLCO (wild buckwheat) = test: Pre-emergence herbicidal activity, cool season; assay type: in vivo, Polygonum convolvulus; details: lowest tested rate with 80% or greater inhibition; rates 300, 100, 30, 10 g/ha; about 14 days
In short: (§6)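 Herbicidal efficacy was judged visually as percent inhibition compared with untreated plants some 14 days after treatment, giving GR80 over doses of 10 to 300 g/ha. Proso millet and crabgrass grew at 30/21 °C; blackgrass and wild buckwheat grew at 18/13 °C.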

[3] = system: GALAP (catchweed bedstraw); test: Pre-emergence herbicidal activity, cool season; assay type: in vivo, Galium aparine; details: lowest tested rate with 80% or greater inhibition; rates 300, 100, 30, 10 g/ha; about 14 days
In short: as §1

ALOMY (blackgrass) = test: Pre-emergence herbicidal activity, cool season; assay type: in vivo, Alopecurus myosuroides; details: GR80 = lowest tested rate (300, 100, 30, 10 g/ha) with 80% or greater inhibition; approx. 14 days after treating; 18/13° C.
Method: as §2, §3, §4, §5

POROL (common purslane) = test: Pre-emergence herbicidal activity, warm season; assay type: in vivo, Portulaca oleracea; details: GR80 = lowest tested rate (300, 100, 30, 10 g/ha) with 80% or greater inhibition; approx. 14 days after treating; 30/21° C.
Method: as §2, §3, §4, §5

[4] = system: AGSST (creeping bentgrass); test: Pre-emergence herbicidal activity, cool season; assay type: in vivo, Agrostis stolonifera; details: GR80 = lowest tested rate (300, 100, 30, 10 g/ha) with 80% or greater inhibition; approx. 14 days after treating; 18/13° C.
In short: as §1

AMARE (redroot pigweed) = test: Pre-emergence herbicidal activity, warm season; assay type: in vivo, Amaranthus retroflexus; details: GR80 = lowest tested rate (300, 100, 30, 10 g/ha) with 80% or greater inhibition; approx. 14 days after treating; 30/21° C.
Method: as §2, §3, §4, §5

ECHCG (barnyardgrass) = test: Pre-emergence herbicidal activity, warm season; assay type: in vivo, Echinochloa crus-galli; details: GR80 = lowest tested rate (300, 100, 30, 10 g/ha) with 80% or greater inhibition; approx. 14 days after treating; 30/21° C.
In short: as §1

SASKR (russian thistle) = test: Pre-emergence herbicidal activity, cool season; assay type: in vivo, Salsola kali; details: lowest tested rate with 80% or greater inhibition; rates 300, 100, 30, 10 g/ha; about 14 days
In short: as §1

SETVI (green foxtail) = test: Pre-emergence herbicidal activity, cool season; assay type: in vivo, Setaria viridis; details: GR80 = lowest tested rate (300, 100, 30, 10 g/ha) with 80% or greater inhibition; approx. 14 days after treating; 18/13° C.
In short: as §1

[5] = system: CHEAL (common lambsquarters); test: Pre-emergence herbicidal activity, warm season; assay type: in vivo, Chenopodium album; details: GR80 = lowest tested rate (300, 100, 30, 10 g/ha) with 80% or greater inhibition; approx. 14 days after treating; 30/21° C.
Method: as §2, §3, §4, §5

STEME (common chickweed) = test: Pre-emergence herbicidal activity, cool season; assay type: in vivo, Stellaria media; details: lowest tested rate with 80% or greater inhibition; rates 300, 100, 30, 10 g/ha; about 14 days
In short: as §1

DIGSA (large crabgrass) = test: Pre-emergence herbicidal activity, warm season; assay type: in vivo, Digitaria sanguinalis; details: GR80 = lowest tested rate (300, 100, 30, 10 g/ha) with 80% or greater inhibition; approx. 14 days after treating; 30/21° C.
Method: as §2, §3, §4, §5

[6] = system: SORHA (johnsongrass (seedling)); test: Pre-emergence herbicidal activity, warm season; assay type: in vivo, Sorghum halepense; details: GR80 = lowest tested rate (300, 100, 30, 10 g/ha) with 80% or greater inhibition; approx. 14 days after treating; 30/21° C.
Method: as §2, §3, §4, §5

[7] = system: CIRAR (canada thistle (seedling)); test: Pre-emergence herbicidal activity, warm season; assay type: in vivo, Cirsium arvense; details: GR80 = lowest tested rate (300, 100, 30, 10 g/ha) with 80% or greater inhibition; approx. 14 days after treating; 30/21° C.
Method: as §2, §3, §4, §5

[8] = system: PANMI (wild proso millet); test: Pre-emergence herbicidal activity, warm season; assay type: in vivo, Panicum miliaceum; details: GR80 = lowest tested rate (300, 100, 30, 10 g/ha) with 80% or greater inhibition; approx. 14 days after treating; 30/21° C.
In short: as §6

LOLMG (annual ryegrass) = test: Pre-emergence herbicidal activity, cool season; assay type: in vivo, Lolium multiflorum; details: GR80 = lowest tested rate (300, 100, 30, 10 g/ha) with 80% or greater inhibition; approx. 14 days after treating; 18/13° C.
Method: as §2, §3, §4, §5

ABUTH (velvetleaf) = test: Pre-emergence herbicidal activity, warm season; assay type: in vivo, Abutilon theophrasti; details: GR80 = lowest tested rate (300, 100, 30, 10 g/ha) with 80% or greater inhibition; approx. 14 days after treating; 30/21° C.
Method: as §2, §3, §4, §5

DATST (jimsonweed) = test: Pre-emergence herbicidal activity, warm season; assay type: in vivo, Datura stramonium; details: GR80 = lowest tested rate (300, 100, 30, 10 g/ha) with 80% or greater inhibition; approx. 14 days after treating; 30/21° C.
Method: as §2, §3, §4, §5

Row | SMILES | Pre-emergence activity GR80, SINAR (SINAR (wild mustard)) | Pre-emergence activity (GR80) SETFA (SETFA (giant foxtail)) | Pre-emergence activity GR80, LAMPU [1] | Pre-emergence activity GR80, VERPE [2] | Pre-emergence activity GR80, POLCO (POLCO (wild buckwheat)) | Pre-emergence activity GR80, GALAP [3] | Pre-emergence activity (GR80) ALOMY (ALOMY (blackgrass)) | Pre-emergence activity (GR80) AGSST [4] | Pre-emergence activity (GR80) AMARE (AMARE (redroot pigweed)) | Pre-emergence activity (GR80) ECHCG (ECHCG (barnyardgrass)) | Pre-emergence activity GR80, SASKR (SASKR (russian thistle)) | Pre-emergence activity (GR80) SETVI (SETVI (green foxtail)) | Pre-emergence activity (GR80) CHEAL [5] | Pre-emergence activity GR80, STEME (STEME (common chickweed)) | Pre-emergence activity (GR80) SORHA [6] | Pre-emergence activity (GR80) PANMI [8] | Pre-emergence activity (GR80) LOLMG (LOLMG (annual ryegrass)) | Pre-emergence activity (GR80) DATST (DATST (jimsonweed)) | also measured
1 | CN(C(=O)n1cnc(S(=O)(=O)C(F)F)n1)C1CCCCC1 [Example 32] | 100 g/ha | 300 g/ha | [empty] | 300 g/ha | [empty] | 100 g/ha | 300 g/ha | 300 g/ha | 300 g/ha | 300 g/ha | [empty] | 100 g/ha | 300 g/ha | 300 g/ha | 30 g/ha | 300 g/ha | 300 g/ha | – | Pre-emergence activity (GR80) SORVU (SORVU (shattercane)): 300 g/ha; Pre-emergence activity (GR80) SOLNI (SOLNI (black nightshade)): 300 g/ha; Pre-emergence activity (GR80) POROL (POROL (common purslane)): 100 g/ha; Pre-emergence activity (GR80) DIGSA (DIGSA (large crabgrass)): 300 g/ha; Pre-emergence activity (GR80) CIRAR [7]: 300 g/ha
2 | C#CCN(C)C(=O)n1cnc(S(=O)(=O)C(F)(F)C(F)F)n1 [Example 66] | [empty] | – | [empty] | 100 g/ha | 300 g/ha | [empty] | – | – | – | – | 300 g/ha | – | – | [empty] | – | – | – | – | Pre-emergence activity (GR80) ABUTH (ABUTH (velvetleaf)): 300 g/ha
3 | CCSC(F)(F)S(=O)(=O)c1ncn(C(=S)N(CC)CC)n1 [Example 58] | [empty] | – | 300 g/ha | 300 g/ha | 300 g/ha | 300 g/ha | – | – | – | – | 300 g/ha | 300 g/ha | 300 g/ha | 300 g/ha | – | – | – | 300 g/ha | –
4 | CCSC(F)(F)S(=O)(=O)c1ncn(C(=O)N(C)Cc2ccccc2)n1 [Example 56] | [empty] | – | [empty] | [empty] | [empty] | [empty] | – | 100 g/ha | – | – | [empty] | 100 g/ha | – | [empty] | – | – | – | 300 g/ha | –
5 | CCCN(CC)C(=O)n1cnc(S(=O)(=O)C(F)(F)Br)n1 [Example 39] | 30 g/ha | 100 g/ha | 30 g/ha | 10 g/ha | 100 g/ha | 100 g/ha | 300 g/ha | 30 g/ha | 300 g/ha | 300 g/ha | 100 g/ha | 100 g/ha | 300 g/ha | 30 g/ha | 100 g/ha | 300 g/ha | 300 g/ha | – | –
